Earlier results on one substance are cited in patent US20170020838A1, “TREATMENT FOR RESPIRATORY DISEASE” (MUCOKINETICA LIMITED, priority 2014, published 2017).

For the series, the system named is airway ENaC. The settings on record: Bridges et al. 2001; cited from earlier work.

As for aprotinin, the “effect on airway ENaC activity” value was “Down regulation”.
